Experimental data reported in US9850225B2, “Compounds useful as immunomodulators” (BRISTOL-MYERS SQUIBB COMPANY, priority 2014, dated 2017).
Counter-ions that a name gives are not always drawn. Like-named read-outs stand apart in the source and are kept apart here.

Biological target: PD-1/PD-L1 interaction (PD-1-Ig / PD-L1-His) (Homo sapiens (Human), UniProt Q9NZQ7)
Test: PD-1/PD-L1 Homogenous Time-Resolved Fluorescence (HTRF) binding assay
Settings: PD-1/PD-L1 HTRF binding assay, read-out: Range or IC50
Summary of the method: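 HTRF detection used 1 nM europium-cryptate anti-Ig and 20 nM APC anti-His. Compounds first saw 10 nM PD-L1-His for 15 min, and 20 nM PD-1-Ig was then added for another 15 min. Buffer was dPBS plus 0.1% BSA and 0.05% Tween-20. All concentrations are final.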

PD-1/PD-L1 interaction (PD-1-Ig / PD-L1-His), sequence (Q9NZQ7 other isoform, or with tags, fused parts or gaps): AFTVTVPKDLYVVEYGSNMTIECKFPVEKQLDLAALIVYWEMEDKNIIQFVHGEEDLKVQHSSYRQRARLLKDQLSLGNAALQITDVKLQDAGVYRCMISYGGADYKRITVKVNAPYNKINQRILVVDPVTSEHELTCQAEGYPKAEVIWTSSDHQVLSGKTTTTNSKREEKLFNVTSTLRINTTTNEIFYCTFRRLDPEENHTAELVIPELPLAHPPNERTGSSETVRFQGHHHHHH

SMILES | IC50 (value given as range class) [nM] | IC50 (numeric value) [nM]
Cc1c(COc2cc(OCc3cncc(C#N)c3)c(CN[C@@H](CO)C(=O)O)cc2Br)cccc1-c1ccc2c(c1)OCCO2 [Example 1318, (S)-2-(5-bromo-2-((5-cyanopyridin-3-yl)methoxy)-4-(3-(2,3-dihydrobenzo[b][1,4]dioxin-6-yl)-2-methylbenzyloxy)benzylamino)-3-hydroxypropanoic acid] | 0.6 to 10 | 
CC(=O)NCCNCc1ccc(OCc2cccc(-c3ccccc3)c2C)cc1OCc1cc(F)cc(Cl)c1 [Example 1091, N-(2-((2-((3-chloro-5-fluorobenzyl)oxy)-4-((2-methyl-[1,1′-biphenyl]-3-yl)methoxy)benzyl)amino)ethyl)acetamide] | 100 to 20000 | 
Cc1c(COc2cc(OCc3cncc(C#N)c3)c(CNC[C@@H](O)CC(=O)O)cc2Br)cccc1-c1ccc2c(c1)OCCO2 [Example 1316, (S)-4-(5-bromo-2-((5-cyanopyridin-3-yl)methoxy)-4-(3-(2,3-dihydrobenzo[b][1,4]dioxin-6-yl)-2-methylbenzyloxy)benzylamino)-3-hydroxybutanoic acid] | 0.6 to 10 | 
COc1cc(OCc2cccc(-c3ccccc3)c2C)cc(OCc2cccc(C#N)c2)c1CNC(C)(CO)C(=O)O (stereo not drawn) [Example 1137, 2-((2-((3-cyanobenzyl)oxy)-6-methoxy-4-((2-methyl-[1,1′-biphenyl]-3-yl)methoxy)benzyl)amino)-3-hydroxy-2-methylpropanoic acid] | 0.6 to 10 | 
Cc1cc(CN[C@@H](CO)C(=O)O)c(OCc2cccnc2)cc1OCc1cccc(-c2ccc3c(c2)OCCO3)c1C [Example 1277, (S)-2-((4-((3-(2,3-dihydrobenzo[b][1,4]dioxin-6-yl)-2-methylbenzyl)oxy)-5-methyl-2-(pyridin-3-ylmethoxy)benzyl)amino)-3-hydroxypropanoic acid] | 0.6 to 10 | 
Cc1c(COc2ccc(CNC[C@@H](O)CC(=O)O)c(OCc3cccc(C#N)c3)c2)cccc1-c1ccccc1 [Example 1011, (S)-4-((2-((3-cyanobenzyl)oxy)-4-((2-methyl-[1,1′-biphenyl]-3-yl)methoxy)benzyl)amino)-3-hydroxybutanoic acid] | 0.6 to 10 | 
Cc1c(COc2ccc(CN[C@@](C)(CO)C(=O)O)c(OCc3cccc(C#N)c3)c2)cccc1-c1ccc2c(c1)OCCO2 [Example 1128, (S)-2-((2-((3-cyanobenzyl)oxy)-4-((3-(2,3-dihydrobenzo[b][1,4]dioxin-6-yl)-2-methylbenzyl)oxy)benzyl)amino)-3-hydroxy-2-methylpropanoic acid] | 0.6 to 10 | 
Cc1cc(CNC[C@@H](O)CC(=O)O)c(OCc2cccc(C#N)c2)cc1OCc1cccc(-c2ccc3c(c2)OCCO3)c1C [Example 1265, (S)-4-((2-((3-cyanobenzyl)oxy)-4-((3-(2,3-dihydrobenzo[b][1,4]dioxin-6-yl)-2-methylbenzyl)oxy)-5-methylbenzyl)amino)-3-hydroxybutanoic acid] | 0.6 to 10 | 
Cc1c(COc2cc(OCc3cccc(C#N)c3)c(CN[C@H](CO)C(=O)O)cc2Cl)cccc1-c1ccc2c(c1)OCCO2 [Example 1157, (R)-2-((5-chloro-2-((3-cyanobenzyl)oxy)-4-((3-(2,3-dihydrobenzo[b][1,4]dioxin-6-yl)-2-methylbenzyl)oxy)benzyl)amino)-3-hydroxypropanoic acid] | 0.6 to 10 | 
Cc1cc(CN2CCCC[C@H]2C(=O)O)c(OCc2cccc(C#N)c2)cc1OCc1cccc(-c2ccc3c(c2)OCCO3)c1C [Example 1268, (S)-1-(2-((3-cyanobenzyl)oxy)-4-((3-(2,3-dihydrobenzo[b][1,4]dioxin-6-yl)-2-methylbenzyl)oxy)-5-methylbenzyl)piperidine-2-carboxylic acid] | 0.6 to 10 | 
CC(=O)NCCNCc1ccc(OCc2cccc(-c3ccccc3)c2C)cc1OCc1cccc(-n2cccc2)c1 [Example 1112, N-(2-((2-((3-(1H-pyrrol-1-yl)benzyl)oxy)-4-((2-methyl-[1,1′-biphenyl]-3-yl)methoxy)benzyl)amino)ethyl)acetamide] | 100 to 20000 | 
Cc1c(COc2cc(OCc3cccc(C#N)c3)c(CN[C@@H](Cc3cn(C)cn3)C(=O)O)cc2Cl)cccc1-c1ccc2c(c1)OCCO2 [Example 1176, (S)-2-((5-chloro-2-((3-cyanobenzyl)oxy)-4-((3-(2,3-dihydrobenzo[b][1,4]dioxin-6-yl)-2-methylbenzyl)oxy)benzyl)amino)-3-(1-methyl-1H-imidazol-4-yl)propanoic acid] | 0.6 to 10 | 
Cc1c(COc2cc(OCc3cncc(C#N)c3)c(CN3CC[C@@H](O)C[C@H]3C(=O)O)cc2Cl)cccc1-c1ccc2c(c1)OCCO2 [Example 2008, (2S,4R)-1-(5-chloro-2-((5-cyanopyridin-3-yl)methoxy)-4-((3-(2,3-dihydrobenzo[b][1,4]dioxin-6-yl)-2-methylbenzyl)oxy)benzyl)-4-hydroxypiperidine-2-carboxylic acid] | 0.6 to 10 | 
Cc1c(COc2cc(OCc3cccc(C#N)c3)c(CN3CCCC[C@@H]3C(=O)O)cc2Cl)cccc1-c1ccc2c(c1)OCCO2 [Example 1198, (R)-1-(5-chloro-2-((3-cyanobenzyl)oxy)-4-((3-(2,3-dihydrobenzo[b][1,4]dioxin-6-yl)-2-methylbenzyl)oxy)benzyl)piperidine-2-carboxylic acid] | 0.6 to 10 | 
Cc1c(COc2cc(OCc3cccc(C#N)c3)c(CN[C@H](Cc3cn(Cc4ccccc4)cn3)C(=O)O)cc2Cl)cccc1-c1ccc2c(c1)OCCO2 [Example 1228, (R)-3-(1-benzyl-1H-imidazol-4-yl)-2-((5-chloro-2-((3-cyanobenzyl)oxy)-4-((3-(2,3-dihydrobenzo[b][1,4]dioxin-6-yl)-2-methylbenzyl)oxy)benzyl)amino)propanoic acid] | 10 to 100 | 
COc1cc(OCc2cccc(-c3ccc4c(c3)OCCO4)c2C)cc(OCc2cccc(C#N)c2)c1CN[C@@H](CO)C(=O)O [Example 1141, (S)-2-((2-((3-cyanobenzyl)oxy)-4-((3-(2,3-dihydrobenzo[b][1,4]dioxin-6-yl)-2-methylbenzyl)oxy)-6-methoxybenzyl)amino)-3-hydroxypropanoic acid] | 0.6 to 10 | 
CCc1cc(CN[C@@](C)(CO)C(=O)O)c(OCc2cccc(C#N)c2)cc1OCc1cccc(-c2ccc3c(c2)OCCO3)c1C [Example 1290, (S)-2-(2-(3-cyanobenzyloxy)-4-(3-(2,3-dihydrobenzo[b][1,4]dioxin-6-yl) -2-methylbenzyloxy)-5-ethylbenzylamino)-3-hydroxy-2-methylpropanoic acid] | 0.6 to 10 | 
Cc1c(COc2cc(O)c(CN[C@](C)(CO)C(=O)O)cc2Cl)cccc1-c1ccc2c(c1)OCCO2 [Example 1263, (R)-2-((5-chloro-4-((3-(2,3-dihydrobenzo[b][1,4]dioxin-6-yl)-2-methylbenzyl)oxy)-2-hydroxybenzyl)amino)-3-hydroxy-2-methylpropanoic acid, TFA] | 100 to 20000 | 
Cc1c(COc2ccc(CNC(CO)C(=O)O)c(OCc3cccc(C#N)c3)c2)cccc1-c1ccccc1 (stereo not drawn) [Example 1017, 2-((2-((3-cyanobenzyl)oxy)-4-((2-methyl-[1,1′-biphenyl]-3-yl)methoxy)benzyl)amino)-3-hydroxypropanoic acid] | 0.6 to 10 | 
CC(=O)NCCNCc1ccc(OCc2cccc(-c3ccccc3)c2C)cc1OCc1cccc(C(=O)OC(C)(C)C)c1 [Example 1105, tert-butyl 3-((2-(((2-acetamidoethyl)amino)methyl)-5-((2-methyl-[1,1′-biphenyl]-3-yl)methoxy)phenoxy)methyl)benzoate] | 100 to 20000 | 
Cc1c(COc2cc(OCc3cccc(C#N)c3)c(CN[C@@](C)(CO)C(=O)O)cc2Br)cccc1-c1ccc2c(c1)OCCO2 [Example 1304, (S)-2-((5-bromo-2-((3-cyanobenzyl)oxy)-4-((3-(2,3-dihydrobenzo[b][1,4]dioxin-6-yl)-2-methylbenzyl)oxy)benzyl)amino)-3-hydroxy-2-methylpropanoic acid] | 0.6 to 10 | 
Cc1c(COc2cc(OCc3cncc(S(C)(=O)=O)c3)c(CO)cc2Cl)cccc1-c1ccc2c(c1)OCCO2 [Example 3013, (5-chloro-4-{[3-(2,3-dihydro-1,4-benzodioxin-6-yl)-2-methylphenyl]methoxy}-2-[(5-methanesulfonylpyridin-3-yl)methoxy]phenyl)methanol] |  | 80
Cc1cc(OCc2cccc(-c3ccc4c(c3)OCCO4)c2C)cc(OCc2cncc(C#N)c2)c1CN[C@@](C)(CO)C(=O)O [Example 1010, (S)-2-(2-((5-cyanopyridin-3-yl)methoxy)-4-(3-(2,3-dihydrobenzo[b][1,4]dioxin-6-yl)-2-methylbenzyloxy)-6-methylbenzylamino)-3-hydroxy-2-methylpropanoic acid] | 0.6 to 10 | 
Cc1c(COc2cc(OCc3cncc(C#N)c3)c(CN[C@H](CO)C(=O)O)cc2F)cccc1-c1ccc2c(c1)OCCO2 [Example 3000] | 0.6 to 10 | 
